This assay deals with p70S6K (Homo sapiens, UniProt P23443). Put plainly: KinaseProfiler Assay. Format: biochemical. The settings on record: read-out: p70S6K, % of Control.
Sequence of p70S6K (P23443 whole entry): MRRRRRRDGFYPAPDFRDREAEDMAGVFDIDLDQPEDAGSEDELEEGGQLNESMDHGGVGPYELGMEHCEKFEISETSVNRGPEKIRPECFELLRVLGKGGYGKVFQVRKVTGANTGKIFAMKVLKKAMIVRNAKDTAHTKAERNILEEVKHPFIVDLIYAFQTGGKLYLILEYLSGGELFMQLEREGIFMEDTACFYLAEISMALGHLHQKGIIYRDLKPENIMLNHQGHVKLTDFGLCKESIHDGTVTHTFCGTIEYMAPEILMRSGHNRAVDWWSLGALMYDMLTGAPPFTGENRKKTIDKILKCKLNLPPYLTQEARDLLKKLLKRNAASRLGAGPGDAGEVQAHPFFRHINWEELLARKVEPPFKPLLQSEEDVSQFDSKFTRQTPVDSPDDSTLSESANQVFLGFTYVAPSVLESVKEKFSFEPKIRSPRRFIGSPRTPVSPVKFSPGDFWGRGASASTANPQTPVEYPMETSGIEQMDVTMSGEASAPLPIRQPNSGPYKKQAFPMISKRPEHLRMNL

In the case of `COc1cc(O)c(CC=C(C)C)c(O)c1C(=O)/C=C/c1ccc(O)cc1` [Xanthohumol, xanthohumol], for the setting “1 ug/ml”, the remaining activity at 1 µg/mL came to 94%. For the setting “5 ug/ml”, the remaining activity at 5 µg/mL is 48%. Further, the remaining activity at 25 µg/mL (25 ug/ml) was 19%. Besides, the remaining activity at 50 µg/mL (50 ug/ml) was found to be 7%.

For the origin of these results see patent US20080051466A1, “Isoalpha acid based protein kinase modulation cancer treatment” (Metaproteomics, LLC, priority 2006, published 2008).
